# Measured values: PubChem BioAssay AID1259407 (Chemical Carcinogenesis Research Information System (CCRIS), 2018)
# Active and inactive are the calls of the source. No rule for the calls is given here.
# System: CCRIS mutagenicity, Ames/micronucleus/aberration tests
# Assay: CCRIS mutagenicity studies
# [1] = Test System: E. COLI, Strain/Indicator: WP2 UVRA, Metabolic Activation: NONE, Method: STANDARD PLATE
# [2] = Test System: MOUSE LYMPHOMA, Strain/Indicator: L5178Y (TK+/TK-), Metabolic Activation: RAT, LIVER, S-9, AROCLOR 1254, Method: SUSPENSION/PLATE
structure (smiles),measurement,setting,value
CC(=O)ON(C(C)=O)c1ccc(/C=C\c2ccccc2)cc1,mutagenic call,"Test System: UDS HUMAN CELLS, Strain/Indicator: THY INCORP (NON-S-PHASE), Metabolic Activation: NONE, Method: LIQUID SCINTILLATION COUNTING",active; positive
same,mutagenic call,"Test System: UDS HUMAN FIBROBLASTS, Strain/Indicator: THY INCORP (NON-S-PHASE), Metabolic Activation: NONE, Method: AUTORADIOGRAPHY",active; positive
CNNCc1ccc(C(=O)NC(C)C)cc1,mutagenic call,"Test System: AMES SALMONELLA TYPHIMURIUM, Strain/Indicator: TA97, Metabolic Activation: HAMSTER, LIVER, S-9, AROCLOR 1254 (10 OR 30%), Method: PREINCUBATION",inactive; negative
same,mutagenic call,"Test System: AMES SALMONELLA TYPHIMURIUM, Strain/Indicator: TA97, Metabolic Activation: NONE, Method: PREINCUBATION",inactive; negative
same,mutagenic call,"Test System: AMES SALMONELLA TYPHIMURIUM, Strain/Indicator: TA97, Metabolic Activation: RAT, LIVER, S-9, AROCLOR 1254 (10 OR 30%), Method: PREINCUBATION",inactive; negative
same,mutagenic call,"Test System: AMES SALMONELLA TYPHIMURIUM, Strain/Indicator: TA98, Metabolic Activation: HAMSTER, LIVER, S-9, AROCLOR 1254 (10 OR 30%), Method: PREINCUBATION",inactive; negative
same,mutagenic call,"Test System: AMES SALMONELLA TYPHIMURIUM, Strain/Indicator: TA98, Metabolic Activation: NONE, Method: PREINCUBATION",inactive; negative
same,mutagenic call,"Test System: AMES SALMONELLA TYPHIMURIUM, Strain/Indicator: TA98, Metabolic Activation: NONE, Method: STANDARD PLATE",inactive; negative
same,mutagenic call,"Test System: AMES SALMONELLA TYPHIMURIUM, Strain/Indicator: TA98, Metabolic Activation: RAT, LIVER, S-9, AROCLOR 1254 (10 OR 30%), Method: PREINCUBATION",inactive; negative
same,mutagenic call,"Test System: AMES SALMONELLA TYPHIMURIUM, Strain/Indicator: TA98, Metabolic Activation: S-9, Method: PREINCUBATION",inactive; negative
same,mutagenic call,"Test System: AMES SALMONELLA TYPHIMURIUM, Strain/Indicator: TA98, Metabolic Activation: S-9, Method: STANDARD PLATE",inactive; negative
same,mutagenic call,"Test System: AMES SALMONELLA TYPHIMURIUM, Strain/Indicator: TA100, Metabolic Activation: HAMSTER, LIVER, S-9, AROCLOR 1254 (10 OR 30%), Method: PREINCUBATION",inactive; negative
same,mutagenic call,"Test System: AMES SALMONELLA TYPHIMURIUM, Strain/Indicator: TA100, Metabolic Activation: NONE, Method: PREINCUBATION",inactive; negative
same,mutagenic call,"Test System: AMES SALMONELLA TYPHIMURIUM, Strain/Indicator: TA100, Metabolic Activation: NONE, Method: STANDARD PLATE",inactive; negative
same,mutagenic call,"Test System: AMES SALMONELLA TYPHIMURIUM, Strain/Indicator: TA100, Metabolic Activation: RAT, LIVER, S-9, AROCLOR 1254 (10 OR 30%), Method: PREINCUBATION",inactive; negative
same,mutagenic call,"Test System: AMES SALMONELLA TYPHIMURIUM, Strain/Indicator: TA100, Metabolic Activation: RAT, LIVER, S-9, PYRAZOLE, Method: PREINCUBATION",inactive; negative
same,mutagenic call,"Test System: AMES SALMONELLA TYPHIMURIUM, Strain/Indicator: TA100, Metabolic Activation: S-9, Method: PREINCUBATION",inactive; negative
same,mutagenic call,"Test System: AMES SALMONELLA TYPHIMURIUM, Strain/Indicator: TA100, Metabolic Activation: S-9, Method: STANDARD PLATE",inactive; negative
same,mutagenic call,"Test System: AMES SALMONELLA TYPHIMURIUM, Strain/Indicator: TA1530 (PKM101), Metabolic Activation: RAT, LIVER, S-9, ETHANOL, Method: PREINCUBATION",inactive; negative
same,mutagenic call,"Test System: AMES SALMONELLA TYPHIMURIUM, Strain/Indicator: TA1530 (PKM101), Metabolic Activation: RAT, LIVER, S-9, PYRAZOLE, Method: PREINCUBATION",inactive; negative
same,mutagenic call,"Test System: AMES SALMONELLA TYPHIMURIUM, Strain/Indicator: TA1535, Metabolic Activation: HAMSTER, LIVER, S-9, AROCLOR 1254 (10 OR 30%), Method: PREINCUBATION",inactive; negative
same,mutagenic call,"Test System: AMES SALMONELLA TYPHIMURIUM, Strain/Indicator: TA1535, Metabolic Activation: NONE, Method: PREINCUBATION",inactive; negative
same,mutagenic call,"Test System: AMES SALMONELLA TYPHIMURIUM, Strain/Indicator: TA1535, Metabolic Activation: RAT, LIVER, S-9, AROCLOR 1254 (10 OR 30%), Method: PREINCUBATION",inactive; negative
same,mutagenic call,"Test System: AMES SALMONELLA TYPHIMURIUM, Strain/Indicator: TA1535, Metabolic Activation: RAT, LIVER, S-9, PYRAZOLE, Method: PREINCUBATION",inactive; negative
same,mutagenic call,"Test System: AMES SALMONELLA TYPHIMURIUM, Strain/Indicator: TA1537, Metabolic Activation: HAMSTER, LIVER, S-9, AROCLOR 1254 (10 OR 30%), Method: PREINCUBATION",inactive; negative
same,mutagenic call,"Test System: AMES SALMONELLA TYPHIMURIUM, Strain/Indicator: TA1537, Metabolic Activation: NONE, Method: PREINCUBATION",inactive; negative
same,mutagenic call,"Test System: AMES SALMONELLA TYPHIMURIUM, Strain/Indicator: TA1537, Metabolic Activation: RAT, LIVER, S-9, AROCLOR 1254 (10 OR 30%), Method: PREINCUBATION",inactive; negative
same,mutagenic call,"Test System: CHINESE HAMSTER OVARY, Strain/Indicator: CHO-K1-BH4 (HGPRT), Metabolic Activation: RAT, LIVER, S-9, AROCLOR, Method: SUSPENSION/PLATE",active; positive
same,mutagenic call,"Test System: CHINESE HAMSTER V-79, Strain/Indicator: V-79/6-THIOGUANINE, Metabolic Activation: NONE, Method: CELL-MEDIATED",active; positive
same,mutagenic call,"Test System: CHINESE HAMSTER V-79, Strain/Indicator: V-79/6-THIOGUANINE, Metabolic Activation: RAT, LIVER, HEPATOCYTES, AROCLOR 1254, Method: CELL-MEDIATED",active; positive
same,mutagenic call,"Test System: CHINESE HAMSTER V-79, Strain/Indicator: V-79/6-THIOGUANINE, Metabolic Activation: RAT, LIVER, HEPATOCYTES, Method: CELL-MEDIATED",active; positive
same,mutagenic call,"Test System: CHINESE HAMSTER V-79, Strain/Indicator: V-79/6-THIOGUANINE, Metabolic Activation: RAT, LIVER, S-9, AROCLOR 1254, Method: CELL-MEDIATED",active; positive
same,mutagenic call,"Test System: CHINESE HAMSTER V-79, Strain/Indicator: V-79/6-THIOGUANINE, Metabolic Activation: RAT, LIVER, S-9, Method: CELL-MEDIATED",active; positive
same,mutagenic call,"Test System: E. COLI, Strain/Indicator: WP2 (HCR), Metabolic Activation: NONE, Method: STANDARD PLATE",inactive; negative
same,mutagenic call,"Test System: E. COLI, Strain/Indicator: WP2 (HCR), Metabolic Activation: S-9, Method: STANDARD PLATE",inactive; negative
same,mutagenic call,"Test System: E. COLI, Strain/Indicator: WP2 (PKM101), Metabolic Activation: RAT, LIVER, S-9, PYRAZOLE, Method: PREINCUBATION",inactive; negative
same,mutagenic call,"Test System: E. COLI, Strain/Indicator: WP2 UVRA (PKM101), Metabolic Activation: RAT, LIVER, S-9, PYRAZOLE, Method: PREINCUBATION",inactive; negative
same,mutagenic call,"Test System: E. COLI, Strain/Indicator: WP2 UVRA, Metabolic Activation: HAMSTER, LIVER, S-9, AROCLOR 1254, Method: STANDARD PLATE",inactive; negative
same,mutagenic call,"Test System: E. COLI, Strain/Indicator: WP2 UVRA, Metabolic Activation: HAMSTER, LIVER, S-9, Method: STANDARD PLATE",inactive; negative
same,mutagenic call,"Test System: E. COLI, Strain/Indicator: WP2 UVRA, Metabolic Activation: MOUSE, LIVER, S-9, AROCLOR 1254, Method: STANDARD PLATE",inactive; negative
same,mutagenic call,"Test System: E. COLI, Strain/Indicator: WP2 UVRA, Metabolic Activation: MOUSE, LIVER, S-9, Method: STANDARD PLATE",inactive; negative
same,mutagenic call,[1],inactive; negative
same,mutagenic call,"Test System: E. COLI, Strain/Indicator: WP2 UVRA, Metabolic Activation: RAT, LIVER, S-9, AROCLOR 1254, Method: STANDARD PLATE",inactive; negative
same,mutagenic call,"Test System: E. COLI, Strain/Indicator: WP2 UVRA, Metabolic Activation: RAT, LIVER, S-9, Method: STANDARD PLATE",inactive; negative
same,mutagenic call,"Test System: MOUSE LYMPHOMA, Strain/Indicator: L5178Y (HGPRT), Metabolic Activation: NONE, Method: SUSPENSION/PLATE",active; positive
same,mutagenic call,"Test System: MOUSE LYMPHOMA, Strain/Indicator: L5178Y (TK+/TK-), Metabolic Activation: NONE, Method: MICROWELL",active; positive
same,mutagenic call,"Test System: MOUSE LYMPHOMA, Strain/Indicator: L5178Y (TK+/TK-), Metabolic Activation: NONE, Method: MINIWELL",active; positive
same,mutagenic call,"Test System: MOUSE LYMPHOMA, Strain/Indicator: L5178Y (TK+/TK-), Metabolic Activation: RAT, LIVER, S-9, AROCLOR 1242 AND 1254 (2:1), Method: SUSPENSION/PLATE",active; positive
same,mutagenic call,[2],active; positive
O=[N+]([O-])c1ccc(/C=N\O)o1,mutagenic call,"Test System: E. COLI, Strain/Indicator: WP2 UVRA, Metabolic Activation: NONE, Method: SPOT",active; positive
same,mutagenic call,[1],active; positive
Nc1nc(-c2ccccc2)c(Br)c(=O)[nH]1,mutagenic call,"Test System: CHINESE HAMSTER OVARY, Strain/Indicator: CHO (HGPRT), Metabolic Activation: RAT, LIVER, S-9, AROCLOR 1254",active; positive
same,mutagenic call,"Test System: MOUSE LYMPHOMA, Strain/Indicator: L5178Y (TK+/TK-), Metabolic Activation: NONE, Method: SUSPENSION/PLATE",inactive; negative
same,mutagenic call,[2],inactive; negative
